We go through 44 compounds from US20240101546A1, “HETEROARYL-ACETYLENES, PHARMACEUTICAL COMPOSITIONS THEREOF, AND THEIR THERAPEUTIC APPLICATIONS” (Eubulus Biotherapeutics Inc., priority 2020, published 2024).

This assay concerns hepatocellular carcinoma cell line Hub-7. Briefly: Cell proliferation assay, Hub-7 (CELL-TITER GLO). The format is cell-based. To be noted: Hub-7 cells, 24 h incubation, cell viability by CELL-TITER GLO, top concentration 10 μM; read-out: EC50, Inhibition of Hub-7 Cell Proliferation. In a few lines: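 Hub-7 cells, 4,000 per well, seeded overnight, then exposed 24 h to compound from 10 μM top in 3-fold serial dilution. Viability read by CELL-TITER GLO luminescence; EC50 derived and binned into potency categories.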
For `C#Cc1nc(NC(=O)[C@H](N)Cc2ccccc2)cs1` [Compound E3, (R)-2-Amino-N-(2-ethynylthiazol-4-yl)-3-phenylpropanamide], the EC50 lay within 200 to 1000 nM.

Take `C#Cc1nc(C(=O)NCCc2ccc(O)c(OC)c2)cs1` [Compound C122, 2-Ethynyl-N-(4-hydroxy-3-methoxyphenethyl)thiazole-4-carboxamide]: the EC50 is 1000 to 5000 nM.

Take `C#Cc1nc(C(=O)N2CCC(C(=O)OC)CC2)cs1` [Compound D35, Methyl 1-(2-ethynylthiazole-4-carbonyl)piperidine-4-carboxylate]: the EC50 was over 5000 nM.

With `C#Cc1nc(NC(=O)NCc2ccc(-c3cc4ncsc4cc3F)cc2)cs1` [Compound A12, 1-(2-Ethynylthiazol-4-yl)-3-(4-(6-fluorobenzo[d]thiazol-5-yl)benzyl)urea], the EC50 fell in the range of 200 to 1000 nM.

With `C#Cc1nc(NC(=O)NCc2ccc(-c3cccc4ncn(C)c(=O)c34)cc2)cs1` [Compound A11, 1-(2-Ethynylthiazol-4-yl)-3-(4-(3-methyl-4-oxo-3,4-dihydroquinazolin-5-yl)-benzyl)urea], the EC50 lay in the range of 200 to 1000 nM.

Consider `C#Cc1nc(C(=O)NCc2ccc([N+](=O)[O-])cc2)cs1` [Compound C103, 2-Ethynyl-N-(4-nitrobenzyl)thiazole-4-carboxamide], for which the EC50 is at most 200 nM.

In the case of `C#Cc1nc(C(=O)NCc2cccc(-c3cc[nH]n3)c2)cs1` [Compound C60, N-(3-(1H-Pyrazol-3-yl)benzyl)-2-ethynylthiazole-4-carboxamide], the EC50 lay within 200 to 1000 nM.

In the case of `C#Cc1nc(C(=O)NCCc2ccc(C(=O)OC)cc2)cs1` [Compound C84, Methyl 4-(2-(2-ethynylthiazole-4-carboxamido)ethyl)benzoate], the EC50 lay in the range of 1000 to 5000 nM.

In the case of `C#Cc1nc(C(=O)NCCc2ccccc2)cs1` [Compound C138, 2-Ethynyl-N-phenethylthiazole-4-carboxamide], the EC50 was in the range of 1000 to 5000 nM.

Take `C#Cc1nc(C(=O)NCc2cccc(N)c2)cs1` [Compound C95, N-(3-Aminobenzyl)-2-ethynylthiazole-4-carboxamide]: the EC50 was 1000 to 5000 nM.

With `C#Cc1nc(C(=O)NCCc2cccc(NC(C)=O)c2)cs1` [Compound C82, N-(3-Acetamidophenethyl)-2-ethynylthiazole-4-carboxamide], the EC50 was 1000 to 5000 nM.

Consider `C#Cc1nc(C(=O)NCc2ccc(-c3ccn(C)n3)cc2)cs1` [Compound C54, 2-Ethynyl-N-(4-(1-methyl-1H-pyrazol-3-yl)benzyl)thiazole-4-carboxamide], for which the EC50 lay within 200 to 1000 nM.

Turning to `C#Cc1nc(C(=O)N[C@H](C)c2cccc(Cl)c2)cs1` [Compound C67, (R)—N-(1-(3-Chlorophenyl)ethyl)-2-ethynylthiazole-4-carboxamide], the EC50 was in the range of 1000 to 5000 nM.

For `C#Cc1nc(NC(=O)NCc2ccc(-c3cccc4ccnc(O)c34)cc2)cs1` [Compound A18, 1-(2-Ethynylthiazol-4-yl)-3-(4-(1-hydroxyisoquinolin-8-yl)benzyl)urea], the EC50 fell in the range of 200 to 1000 nM.

`C#Cc1nc(C(=O)NCc2cccc3[nH]ccc23)cs1` [Compound C139, N-((1H-Indol-4-yl)methyl)-2-ethynylthiazole-4-carboxamide]: the EC50 is over 5000 nM.

Consider `C#Cc1nc(NC(=O)CCc2ccc(-c3cccc4c3cnn4C)cc2)cs1` [Compound E4, N-(2-Ethynylthiazol-4-yl)-3-(4-(1-methyl-1H-indazol-4-yl)phenyl)propanamide], for which the EC50 is at most 200 nM.

For `C#Cc1nc(C(=O)NCCc2ccc(-c3c(F)ccc4ncsc34)cc2)cs1` [Compound C5, 2-Ethynyl-N-(4-(6-fluorobenzo[d]thiazol-7-yl)phenethyl)thiazole-4-carboxamide], the EC50 is at most 200 nM.

`C#Cc1nc(C(=O)NCCc2ccc(-c3cccc4ncncc34)cc2)cs1` [Compound C24, 2-Ethynyl-N-(4-(quinazolin-5-yl)phenethyl)thiazole-4-carboxamide]: the EC50 was at most 200 nM.

Regarding `C#Cc1nc(NC(=O)NCc2ccc(-c3cc(C(=O)N(C)C)cc4c3cnn4C)cc2)cs1` [Compound A23, 4-(4-((3-(2-Ethynylthiazol-4-yl)ureido)methyl)phenyl)-N,N,1-trimethyl-1H-indazole-6-carboxamide], the EC50 fell in the range of 200 to 1000 nM.

Take `C#Cc1nc(C(=O)N(C)CCc2ccc([N+](=O)[O-])cc2)cs1` [Compound C100, 2-Ethynyl-N-methyl-N-(4-nitrophenethyl)thiazole-4-carboxamide]: the EC50 is 200 to 1000 nM.

`C#Cc1nc(C(=O)NCCc2ccc(-c3cccc4c3C(=O)NC4)cc2)cs1` [Compound C13, 2-Ethynyl-N-(4-(3-oxoisoindolin-4-yl)phenethyl)thiazole-4-carboxamide]: the EC50 was 200 to 1000 nM.

Turning to `C#Cc1nc(C(=O)NCc2cccc(NC(C)=O)c2)cs1` [Compound C94, N-(3-Acetamidobenzyl)-2-ethynylthiazole-4-carboxamide], the EC50 was 1000 to 5000 nM.

In the case of `C#Cc1nc(C(=O)N2CCN(c3ccc(-c4cc(C(=O)OC)cc5c4cnn5C)cc3)CC2)cs1` [Compound D2, Methyl 4-(4-(4-(2-ethynylthiazole-4-carbonyl)piperazin-1-yl)phenyl)-1-methyl-1H-indazole-6-carboxylate], the EC50 is at most 200 nM.

In the case of `C#Cc1nc(C(=O)NCc2cccc(C#N)c2)cs1` [Compound C127, N-(3-Cyanobenzyl)-2-ethynylthiazole-4-carboxamide], the EC50 fell in the range of 200 to 1000 nM.

Turning to `C#Cc1nc(C(=O)N2CCN(c3ccc(-c4cccc5nn(C)cc45)cc3)CC2)cs1` [Compound D23, (2-Ethynylthiazol-4-yl)(4-(4-(2-methyl-2H-indazol-4-yl)phenyl)piperazin-1-yl)-methanone], the EC50 is at most 200 nM.

For `C#Cc1nc(C(=O)N2CCCC(CO)C2)cs1` (centres unmarked) [Compound D33, (2-Ethynylthiazol-4-yl)(3-(hydroxymethyl)piperidin-1-yl)methanone], the EC50 was over 5000 nM.

Take `C#Cc1nc(C(=O)NCCc2cccc(-c3cccc4c3CC(=O)N4)c2)cs1` [Compound C27, 2-Ethynyl-N-(3-(2-oxoindolin-4-yl)phenethyl)thiazole-4-carboxamide]: the EC50 is 200 to 1000 nM.

Regarding `N#Cc1nc(C(=O)NCc2ccccc2)cs1` [Compound C90, N-Benzyl-2-cyanothiazole-4-carboxamide], the EC50 was over 5000 nM.

Take `C#Cc1nc(C(=O)NCCc2ccc(-c3ccccc3S(C)(=O)=O)cc2)cs1` [Compound C15, 2-Ethynyl-N-(2-(2′-(methylsulfonyl)-[1,1′-biphenyl]-4-yl)ethyl)thiazole-4-carboxamide]: the EC50 fell in the range of 200 to 1000 nM.

Take `C#Cc1nc(C(=O)NCCc2cccc(-c3cccc4nn(C)cc34)c2)cs1` [Compound C29, 2-Ethynyl-N-(3-(2-methyl-2H-indazol-4-yl)phenethyl)thiazole-4-carboxamide]: the EC50 lay within 200 to 1000 nM.

For `C#Cc1nc(C(=O)NCCc2ccc(S(C)(=O)=O)cc2)cs1` [Compound C101, 2-Ethynyl-N-(4-(methylsulfonyl)phenethyl)thiazole-4-carboxamide], the EC50 is over 5000 nM.

Consider `C#Cc1nc(C(=O)N2CCC(F)(c3ccc(-c4cccc5ncsc45)cc3)CC2)cs1` [Compound D11, (4-(4-(Benzo[d]thiazol-7-yl)phenyl)-4-fluoropiperidin-1-yl)(2-ethynylthiazol-4-yl)methanone], for which the EC50 is at most 200 nM.

Consider `C#Cc1nc(C(=O)NCc2ccc3ncccc3c2)cs1` [Compound C96, 2-Ethynyl-N-(quinolin-6-ylmethyl)thiazole-4-carboxamide], for which the EC50 is 1000 to 5000 nM.

Regarding `C#Cc1nc(NC(=O)NCc2ccc(-c3cc(C(=O)OC)cc4c3cnn4C)cc2)cs1` [Compound A22, Methyl 4-(4-((3-(2-ethynylthiazol-4-yl)ureido)methyl)phenyl)-1-methyl-1H-indazole-6-carboxylate], the EC50 was at most 200 nM.

For `C#Cc1nc(C(=O)NCc2ccc3ccccc3c2)cs1` [Compound C64, 2-Ethynyl-N-(naphthalen-2-ylmethyl)thiazole-4-carboxamide], the EC50 is at most 200 nM.

Consider `C#Cc1nc(NC(=O)NCc2ccc(-c3cccc4c3cnn4C)cc2)cs1` [Compound A16, 1-(2-Ethynylthiazol-4-yl)-3-(4-(1-methyl-1H-indazol-4-yl)benzyl)urea], for which the EC50 is at most 200 nM.

For the compound `C#Cc1nc(C(=O)NCCc2cccc(C(=O)OC)c2)cs1` [Compound C97, Methyl 3-(2-(2-ethynylthiazole-4-carboxamido)ethyl)benzoate], the EC50 lay in the range of 200 to 1000 nM.

Turning to `C#Cc1nc(C(=O)N[C@@H](C)c2cccc(Cl)c2)cs1` [Compound C69, (S)—N-(1-(3-Chlorophenyl)ethyl)-2-ethynylthiazole-4-carboxamide], the EC50 is at most 200 nM.

Turning to `C#Cc1nc(C(=O)NCCc2ccc(-c3cccc4c3C(=O)CC4)cc2)cs1` [Compound C18, 2-Ethynyl-N-(4-(3-oxo-2,3-dihydro-1H-inden-4-yl)phenethyl)thiazole-4-carboxamide], the EC50 lay within 200 to 1000 nM.

As for `C#Cc1nc(C(=O)N2CCC(c3ccc(-c4cccc5nn(C)cc45)cc3)CC2)cs1` [Compound D19, (2-Ethynylthiazol-4-yl)(4-(4-(2-methyl-2H-indazol-4-yl)phenyl)piperidin-1-yl)-methanone], the EC50 was at most 200 nM.

As to `C#Cc1nc(NC(=O)NCc2ccc(-c3ccccc3)cc2)cs1` [Compound A8, 1-([1,1′-Biphenyl]-4-ylmethyl)-3-(2-ethynylthiazol-4-yl)urea], the EC50 was at most 200 nM.

Regarding `C#Cc1nc(C(=O)NCc2ccc(-c3cn[nH]c3)cc2)cs1` [Compound C92, N-(4-(1H-Pyrazol-4-yl)benzyl)-2-ethynylthiazole-4-carboxamide], the EC50 lay in the range of 1000 to 5000 nM.

Consider `C#Cc1nc(C(=O)NC2Cc3ccccc3C2)cs1` [Compound C62, N-(2,3-Dihydro-1H-inden-2-yl)-2-ethynylthiazole-4-carboxamide], for which the EC50 was in the range of 200 to 1000 nM.

As to `C#Cc1nc(C(=O)NC2(c3cccc(Cl)c3)CC2)cs1` [Compound C68, N-(1-(3-Chlorophenyl)cyclopropyl)-2-ethynylthiazole-4-carboxamide], the EC50 is 200 to 1000 nM.
